# According to patent US8247170B2, “Detection of penicillin tolerance in Group B Streptococcus: single nucleotide polymorphisms in penicillin binding protein 4” (priority 2008, dated 2012):
# System: GBS clinical isolates and laboratory strains
# Assay: Macrobroth penicillin tolerance assay
# Type: cell-based, Group B Streptococcus
# Details: then 24 h drug-free; for 30xMIC, regrowth O.D.600: Penicillin G 30×MIC90 48 h; for 100xMIC, regrowth O.D.600: Penicillin G 100×MIC90 48 h; for 300xMIC, regrowth O.D.600: Penicillin G 300×MIC90 48 h; for 10xMIC, regrowth O.D.600: Penicillin G 10×MIC90 48 h
# Method: Using this modified penicillin tolerance assay, tolerant strains from the GBS clinical isolates can be more efficiently identified. In this macrobroth culture format, 25 ml THB broth GBS cultures (containing clinical isolates) were grown to an early exponential growth phase (˜0.2 OD600). Cell cultures (6 ml) were collected and divided into 4 culture tubes. […] Cell cultures were shaken at 150 rpm in order to maintain cells in suspension for proper growth. Subcultures (1/20 dilution) of cells were put into fresh THB containing […] Penase (i.e., 100 μl of Penase 10,000 U stock into 4 ml THB culture). Subcultures were allowed to grow for 24 hours at 37° C. Cell growth was monitored by OD (see Example 2).
# (I) Bacterial Strains and Culture Conditions. GBS strains A909 (serotype IA), 515 (serotype IA), NEM316 (serotype III), COHI (serotype III), 2603V/R (serotype V) and O90R (non-typable) were used in this study. E. coli Top10 cells were used for the recombination experiments. GBS was cultured in Todd Hewitt broth (THB) or Tryptic Soy 5% sheep blood (TS) media and E. coli in Luria-broth (LB) medium or agar. Antibiotics were used at the following concentrations: for GBS—penicillin G (MIC90 0.06 μg ml^−1), ampicillin (MIC90 0.12 μg ml^−1), vancomycin (MIC90 2 μg ml^−1), cefazolin (MIC90 1 μg ml^−1) and chloramphenicol (5 μg ml^−1); for E. coli—ampicillin (50 μg ml^−1) and chloramphenicol (5 μg ml^−1). Both GBS and E. coli cultures were grown at 37° C. (II) Tolerance Using the MBC:MIC Ratio Method. Three GBS laboratory strains (i.e., A909, NEM316, and O90R) were cultured overnight for 18 h at 37° C. in THB. Subcultures in THB were subsequently grown to exponential phase (OD600˜0.3; i.e. 5×10^5 cfu/ml) at 37° C. Cell cultures were then exposed to different concentrations of antibiotics (Penicillin G, Ampicillin, Cefozolin or Vancomycin). […] Cell cultures were dispersed every 18 h before OD600 was measured to determine the lowest concentration of antibiotic with 90% growth inhibition (MIC90). Antibiotic treated cells (8 μl) from each well were re-suspended into PBS (100 μl) and plated (54 μl) on TS agar plates and allowed to grow for an additional 24 h at 37° C. Cell count was performed to determine the lowest concentration of antibiotic with 90% killing of original inoculums (MBC90). (III) Penicillin Killing and Regrowth Tolerance Assay by Microbroth Dilution. Three GBS laboratory strains (i.e., A909, NEM316, and O90R) were cultured overnight for 18 h at 37° C. in THB. Subcultures in THB were subsequently grown to exponential phase (OD600˜0.3) at 37° C. Cell cultures were then exposed to different concentrations of Penicillin G (Sigma, St. Louis, Mo.). […] Cell cultures were dispersed. A 1:20 dilution of cells was re-plated into new wells containing fresh THB with 500 U Penase (to degrade residual penicillin). Cell cultures were allowed to re-grow for an additional 24 h at 37° C. before the OD600 was measured. (IV) Measuring Cell Viability by Determining ATP Concentration. GBS strains were cultured for 18 h at 37° C. in THB. These cells were inoculated into fresh THB and subsequently allowed to grow to exponential phase (OD600 0.25-0.3) at 37° C. One ml of each culture was centrifuged at 5,000×g for 4 min. The cell pellet was re-suspended in ATP-free water. Cellular ATP was extracted using trichloroacetic acid (TCA) (5%) for 2 min and subsequently neutralized with Tris-EDTA-0.1M NaOAc, pH 7.75 to 10×TCA volume. The initial (in.) cellular ATP concentration ([ATP]) was measured using the ENLITEN (Promega) luciferase based reaction kit. THB cultures were then treated with 100×MIC90 Penicillin G for 22 h. The experimental (exp.) cellular ATP was extracted and the concentration was measured as stated above. Based on the calculations ([ATP] exp.)/([ATP] in./O.D. in.), differences in viability were equated with the change in [ATP]. (V) Measuring Penicillin Induced Lysis. Three GBS laboratory strains (A909, NEM316, and O90R) were cultured for 18 h at 37° C. in THB. […]
smiles,measurement,setting,value
CC1(C)S[C@@H]2[C@H](NC(=O)Cc3ccccc3)C(=O)N2[C@H]1C(=O)O [Penicillin G],"30xMIC, regrowth O.D.600",GBS strain 172 (NT),−− (“−−” indicates an O.D.600 of 0.001 to 0.099)
same,"100xMIC, regrowth O.D.600",GBS strain 172 (NT),−− (“−−” indicates an O.D.600 of 0.001 to 0.099)
same,"300xMIC, regrowth O.D.600",GBS strain 172 (NT),−− (“−−” indicates an O.D.600 of 0.001 to 0.099)
same,"10xMIC, regrowth O.D.600",GBS strain 180 (V),−− (“−−” indicates an O.D.600 of 0.001 to 0.099)
same,"30xMIC, regrowth O.D.600",GBS strain 180 (V),−− (“−−” indicates an O.D.600 of 0.001 to 0.099)
same,"100xMIC, regrowth O.D.600",GBS strain 180 (V),−− (“−−” indicates an O.D.600 of 0.001 to 0.099)
same,"300xMIC, regrowth O.D.600",GBS strain 180 (V),−− (“−−” indicates an O.D.600 of 0.001 to 0.099)
same,"10xMIC, regrowth O.D.600",GBS strain 193 (III),−− (“−−” indicates an O.D.600 of 0.001 to 0.099)
same,"30xMIC, regrowth O.D.600",GBS strain 193 (III),−− (“−−” indicates an O.D.600 of 0.001 to 0.099)
same,"100xMIC, regrowth O.D.600",GBS strain 193 (III),−− (“−−” indicates an O.D.600 of 0.001 to 0.099)
same,"300xMIC, regrowth O.D.600",GBS strain 193 (III),−− (“−−” indicates an O.D.600 of 0.001 to 0.099)
same,"10xMIC, regrowth O.D.600",GBS strain 204 (V),−− (“−−” indicates an O.D.600 of 0.001 to 0.099)
same,"30xMIC, regrowth O.D.600",GBS strain 204 (V),−− (“−−” indicates an O.D.600 of 0.001 to 0.099)
same,"100xMIC, regrowth O.D.600",GBS strain 204 (V),−− (“−−” indicates an O.D.600 of 0.001 to 0.099)
same,"300xMIC, regrowth O.D.600",GBS strain 204 (V),−− (“−−” indicates an O.D.600 of 0.001 to 0.099)
same,"10xMIC, regrowth O.D.600",GBS strain 211 (Ib),−− (“−−” indicates an O.D.600 of 0.001 to 0.099)
same,"30xMIC, regrowth O.D.600",GBS strain 211 (Ib),−− (“−−” indicates an O.D.600 of 0.001 to 0.099)
same,"100xMIC, regrowth O.D.600",GBS strain 211 (Ib),−− (“−−” indicates an O.D.600 of 0.001 to 0.099)
same,"300xMIC, regrowth O.D.600",GBS strain 211 (Ib),−− (“−−” indicates an O.D.600 of 0.001 to 0.099)
same,"10xMIC, regrowth O.D.600",GBS strain 219 (Ia),+ (“+” indicates an O.D.600 of 0.100 to 0.250)
same,"30xMIC, regrowth O.D.600",GBS strain 219 (Ia),+ (“+” indicates an O.D.600 of 0.100 to 0.250)
same,"100xMIC, regrowth O.D.600",GBS strain 219 (Ia),+ (“+” indicates an O.D.600 of 0.100 to 0.250)
same,"300xMIC, regrowth O.D.600",GBS strain 219 (Ia),+ (“+” indicates an O.D.600 of 0.100 to 0.250)
same,"10xMIC, regrowth O.D.600",GBS strain 244 (Ib),−− (“−−” indicates an O.D.600 of 0.001 to 0.099)
same,"30xMIC, regrowth O.D.600",GBS strain 244 (Ib),−− (“−−” indicates an O.D.600 of 0.001 to 0.099)
same,"100xMIC, regrowth O.D.600",GBS strain 244 (Ib),−− (“−−” indicates an O.D.600 of 0.001 to 0.099)
same,"300xMIC, regrowth O.D.600",GBS strain 244 (Ib),−− (“−−” indicates an O.D.600 of 0.001 to 0.099)
same,"10xMIC, regrowth O.D.600",GBS strain 264 (V),+++ (“+++” indicates an O.D.600 of 0.751 to 1.500)
same,"30xMIC, regrowth O.D.600",GBS strain 264 (V),++ (“++” indicates an O.D.600 of 0.251 to 0.750)
same,"100xMIC, regrowth O.D.600",GBS strain 264 (V),−− (“−−” indicates an O.D.600 of 0.001 to 0.099)
same,"300xMIC, regrowth O.D.600",GBS strain 264 (V),++ (“++” indicates an O.D.600 of 0.251 to 0.750)
same,"10xMIC, regrowth O.D.600",GBS strain 268 (Ib),++ (“++” indicates an O.D.600 of 0.251 to 0.750)
same,"30xMIC, regrowth O.D.600",GBS strain 268 (Ib),−− (“−−” indicates an O.D.600 of 0.001 to 0.099)
same,"100xMIC, regrowth O.D.600",GBS strain 268 (Ib),+++ (“+++” indicates an O.D.600 of 0.751 to 1.500)
same,"300xMIC, regrowth O.D.600",GBS strain 268 (Ib),+++ (“+++” indicates an O.D.600 of 0.751 to 1.500)
same,"10xMIC, regrowth O.D.600",GBS strain 272 (V),−− (“−−” indicates an O.D.600 of 0.001 to 0.099)
same,"30xMIC, regrowth O.D.600",GBS strain 272 (V),−− (“−−” indicates an O.D.600 of 0.001 to 0.099)
same,"100xMIC, regrowth O.D.600",GBS strain 272 (V),−− (“−−” indicates an O.D.600 of 0.001 to 0.099)
same,"300xMIC, regrowth O.D.600",GBS strain 272 (V),−− (“−−” indicates an O.D.600 of 0.001 to 0.099)
same,"10xMIC, regrowth O.D.600",GBS strain 273 (V),−− (“−−” indicates an O.D.600 of 0.001 to 0.099)
same,"30xMIC, regrowth O.D.600",GBS strain 273 (V),−− (“−−” indicates an O.D.600 of 0.001 to 0.099)
same,"100xMIC, regrowth O.D.600",GBS strain 273 (V),−− (“−−” indicates an O.D.600 of 0.001 to 0.099)
same,"300xMIC, regrowth O.D.600",GBS strain 273 (V),++ (“++” indicates an O.D.600 of 0.251 to 0.750)
same,"10xMIC, regrowth O.D.600",GBS strain 279 (III),++ (“++” indicates an O.D.600 of 0.251 to 0.750)
same,"30xMIC, regrowth O.D.600",GBS strain 279 (III),+++ (“+++” indicates an O.D.600 of 0.751 to 1.500)
same,"100xMIC, regrowth O.D.600",GBS strain 279 (III),++ (“++” indicates an O.D.600 of 0.251 to 0.750)
same,"300xMIC, regrowth O.D.600",GBS strain 279 (III),++ (“++” indicates an O.D.600 of 0.251 to 0.750)
same,"10xMIC, regrowth O.D.600",GBS strain 296 (Ia),−− (“−−” indicates an O.D.600 of 0.001 to 0.099)
same,"30xMIC, regrowth O.D.600",GBS strain 296 (Ia),−− (“−−” indicates an O.D.600 of 0.001 to 0.099)
same,"100xMIC, regrowth O.D.600",GBS strain 296 (Ia),++ (“++” indicates an O.D.600 of 0.251 to 0.750)
same,"300xMIC, regrowth O.D.600",GBS strain 296 (Ia),−− (“−−” indicates an O.D.600 of 0.001 to 0.099)
same,"10xMIC, regrowth O.D.600",GBS strain 306 (II),−− (“−−” indicates an O.D.600 of 0.001 to 0.099)
same,"30xMIC, regrowth O.D.600",GBS strain 306 (II),−− (“−−” indicates an O.D.600 of 0.001 to 0.099)
same,"100xMIC, regrowth O.D.600",GBS strain 306 (II),−− (“−−” indicates an O.D.600 of 0.001 to 0.099)
same,"300xMIC, regrowth O.D.600",GBS strain 306 (II),−− (“−−” indicates an O.D.600 of 0.001 to 0.099)
same,"10xMIC, regrowth O.D.600",GBS strain 307 (II),−− (“−−” indicates an O.D.600 of 0.001 to 0.099)
same,"30xMIC, regrowth O.D.600",GBS strain 307 (II),−− (“−−” indicates an O.D.600 of 0.001 to 0.099)
same,"100xMIC, regrowth O.D.600",GBS strain 307 (II),−− (“−−” indicates an O.D.600 of 0.001 to 0.099)
same,"300xMIC, regrowth O.D.600",GBS strain 307 (II),−− (“−−” indicates an O.D.600 of 0.001 to 0.099)
